According to patent US20260102501A1, “ANTI-CANCER NUCLEAR HORMONE RECEPTOR-TARGETING COMPOUNDS” (Nuvation Bio Inc., priority 2022, published 2026):
Like-named read-outs stand apart in the source and are kept apart here.

What was measured:
LNCap cells = assay: Cell viability assay (CellTiterGlo); type: cell-based; conditions: Homo sapiens, 144 h
22Rv1 cells = assay: Cell viability assay (CellTiterGlo); conditions: Homo sapiens, 22Rv1, 144 h, read-out: 22RV1 (IC50, nM)
Procedure: Cell viability assay: LNCap, 22Rv1, MCF7, MDAMB361, T47D, and IEC6 cells were seeded at a density of 500-2000 cells/well in 96 well plates, and a ‘T0’ (timepoint 0) was included along with the assay plate. The plates were then incubated at 37° C., 5% CO2 in a cell culture incubator overnight. On the next day, the ‘T0’ plate was assayed using CellTiterGlo (Promega, Inc) according to the manufacturer's instructions. The appropriate compounds were diluted in DMSO and added to the assay plate (final DMSO concentration of 0.1-0.2%) on the next day. The assay plates were incubated for 6 days at 37° C., 5% CO2. After the incubation period, the plates were assayed using CellTiterGlo (Promega, Inc) according to the manufacturer's instructions and luminescence was read on the En Vision plate reader. […] GraphPadPrism was used to analyze the data and determine GI50/IC50 values.

[1] = biological target: T1, AR (cytosol from LnCaP cells) (Homo sapiens, UniProt P10275, T878A); assay: AR binding assay (3H-R1881 displacement)
T1 sequence (P10275 1-920 T878A): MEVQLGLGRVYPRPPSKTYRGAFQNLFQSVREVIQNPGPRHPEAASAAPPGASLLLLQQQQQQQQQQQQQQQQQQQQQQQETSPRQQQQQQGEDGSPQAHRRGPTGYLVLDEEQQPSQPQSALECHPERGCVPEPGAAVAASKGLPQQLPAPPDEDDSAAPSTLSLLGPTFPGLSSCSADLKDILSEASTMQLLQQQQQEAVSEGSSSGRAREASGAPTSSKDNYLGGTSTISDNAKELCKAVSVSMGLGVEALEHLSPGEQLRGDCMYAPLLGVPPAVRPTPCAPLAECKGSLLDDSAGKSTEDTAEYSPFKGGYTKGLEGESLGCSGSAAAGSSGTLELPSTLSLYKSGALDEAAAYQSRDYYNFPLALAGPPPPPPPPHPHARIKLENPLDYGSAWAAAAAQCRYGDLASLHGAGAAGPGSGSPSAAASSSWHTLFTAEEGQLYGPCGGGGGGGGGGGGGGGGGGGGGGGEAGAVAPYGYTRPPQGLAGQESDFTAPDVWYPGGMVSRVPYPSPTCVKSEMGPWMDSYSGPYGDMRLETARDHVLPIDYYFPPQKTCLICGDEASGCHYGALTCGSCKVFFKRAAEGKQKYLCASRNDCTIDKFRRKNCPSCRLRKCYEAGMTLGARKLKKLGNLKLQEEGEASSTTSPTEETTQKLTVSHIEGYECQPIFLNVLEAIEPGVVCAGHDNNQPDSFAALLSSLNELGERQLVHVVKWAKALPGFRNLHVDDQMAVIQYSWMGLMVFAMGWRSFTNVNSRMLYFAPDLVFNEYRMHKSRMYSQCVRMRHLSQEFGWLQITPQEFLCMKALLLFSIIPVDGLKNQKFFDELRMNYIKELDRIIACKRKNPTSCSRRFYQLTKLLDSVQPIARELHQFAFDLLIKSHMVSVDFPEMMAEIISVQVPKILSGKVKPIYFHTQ
Procedure: The plate was then centrifuged at 3000 rpm for 30 minutes at 4° C.

IEC6 cells = assay: Cell viability assay (CellTiterGlo); conditions: Rattus norvegicus, IEC-6, 144 h, read-out: IEC-6 (IC50, nM)
[2] = 6 days incubation, CellTiterGlo, read-out: LNCap (IC50)

Row | SMILES | IC50 (LNCap cells; read-out: LNCap (IC50, nM)) [nM] | IC50 (22Rv1 cells) [nM] | IC50 [1] [nM] | IC50 (IEC6 cells) [nM] | IC50 (LNCap cells; [2]) [nM]
1 | CC[C@@]1(O)C(=O)OCc2c1cc1n(c2=O)Cc2cc3c(CN(C)C)c(OC(=O)N4CCN(C(=O)CCCCCNC(=O)c5ccc(N6C(=S)N(c7ccc(C#N)c(C(F)(F)F)c7)C(=O)C6(C)C)cc5F)CC4)ccc3nc2-1 [Compound 9, (S)-10-((Dimethylamino)methyl)-4-ethyl-4-hydroxy-3,14-dioxo-3,4,12,14-tetrahydro-1H-pyrano[3′,4′:6,7]indolizino[1,2-b]quinolin-9-yl 4-(6-(4-(3-(4-cyano-3-(trifluoromethyl)phenyl)-5,5-dimethyl-4-oxo-2-thioxoimidazolidin-1-yl)-2-fluorobenzamido)hexanoyl)piperazine-1-carboxylate] | 10 to 100 | 10 to 100 | > 1000 | > 1000 | 
2 | CC[C@@]1(O)C(=O)OCc2c1cc1n(c2=O)Cc2cc3c(CN4CCN(C(=O)C5CCN(c6ccc(C(=O)N[C@H]7CC[C@H](Oc8ccc(C#N)c(Cl)c8)CC7)nn6)CC5)CC4)c(OC(=O)N4CCC(N5CCCCC5)CC4)ccc3nc2-1 [Compound No. 13, (S)-10-((4-(1-(6-(((1r,4r)-4-(3-Chloro-4-cyanophenoxy)cyclohexyl)carbamoyl)pyridazin-3-yl)piperidine-4-carbonyl)piperazin-1-yl)methyl)-4-ethyl-4-hydroxy-3,14-dioxo-3,4,12,14-tetrahydro-1H-pyrano[3′,4′:6,7]indolizino[1,2-b]quinolin-9-yl [1,4′-bipiperidine]-1′-carboxylate] | > 1000 | > 1000 | 10 to 100 | > 1000 | 
3 | CC[C@@]1(O)C(=O)OCc2c1cc1n(c2=O)Cc2cc3c(CN(C)C(=O)C(C)(C)N(C)C(=O)CO[C@H]4CC[C@H]5[C@@H]6CC[C@H]7CC(=O)CC[C@]7(C)[C@H]6CC[C@]45C)c(O)ccc3nc2-1 [Compound 4, 2-(2-(((5S,8R,9S,10S,13S,14S,17S)-10,13-Dimethyl-3-oxohexadecahydro-1H-cyclopenta[a]phenanthren-17-yl)oxy)-N-methylacetamido)-N—(((S)-4-ethyl-4,9-dihydroxy-3,14-dioxo-3,4,12,14-tetrahydro-1H-pyrano[3′,4′:6,7]indolizino[1,2-b]quinolin-10-yl)methyl)-N,2-dimethylpropanamide] |  | 101 to 1000 |  |  | 101 to 1000
4 | CC[C@@]1(O)C(=O)OCc2c1cc1n(c2=O)Cc2cc3c(CN(C)C)c(OC(=O)N4CCN(C(=O)C5CCN(c6ccc(C(=O)N[C@H]7CC[C@H](N(C)c8ccc(C#N)c(Cl)c8)CC7)nn6)CC5)CC4)ccc3nc2-1 [Compound No. 11, (S)-10-((Dimethylamino)methyl)-4-ethyl-4-hydroxy-3,14-dioxo-3,4,12,14-tetrahydro-1H-pyrano[3′,4′:6,7]indolizino[1,2-b]quinolin-9-yl 4-(1-(6-(((1r,4r)-4-((3-chloro-4-cyanophenyl)(methyl)amino)-cyclohexyl)carbamoyl)pyridazin-3-yl)piperidine-4-carbonyl)piperazine-1-carboxylate] | 10 to 100 | 10 to 100 | < 10 | 101 to 1000 | 
5 | CC[C@@]1(O)C(=O)OCc2c1cc1n(c2=O)Cc2cc3c(CN4CCN(CC5CCN(c6ccc(C(=O)N[C@H]7CC[C@H](N(C)c8ccc(C#N)c(Cl)c8)CC7)nn6)CC5)CC4)c(O)ccc3nc2-1 [Compound 28, N-((1r,4r)-4-((3-Chloro-4-cyanophenyl)(methyl)amino)cyclohexyl)-6-(4-((4-(((S)-4-ethyl-4,9-dihydroxy-3,14-dioxo-3,4,12,14-tetrahydro-1H-pyrano[3′,4′:6,7]indolizino[1,2-b]quinolin-10-yl)methyl)piperazin-1-yl)methyl)piperidin-1-yl)pyridazine-3-carboxamide] |  | 10 to 100 | 10 to 100 |  | 10 to 100
6 | CC[C@@]1(O)C(=O)OCc2c1cc1n(c2=O)Cc2cc3c(CN4CCN(C(=O)C5CCN(c6ccc(C(=O)N[C@H]7CC[C@H](N(C)c8ccc(C#N)c(Cl)c8)CC7)nn6)CC5)CC4)c(O)ccc3nc2-1 [Compound No. 15, N-((1r,4r)-4-((3-Chloro-4-cyanophenyl)(methyl)amino)cyclohexyl)-6-(4-(4-(((S)-4-ethyl-4,9-dihydroxy-3,14-dioxo-3,4,12,14-tetrahydro-1H-pyrano[3′,4′:6,7]indolizino[1,2-b]quinolin-10-yl)methyl)-piperazine-1-carbonyl)piperidin-1-yl)pyridazine-3-carboxamide] |  | 10 to 100 | < 10 | > 1000 | 10 to 100
7 | CC[C@@]1(O)C(=O)OCc2c1cc1n(c2=O)Cc2cc3c(CN4CCN(C(=O)C5CCN(c6ccc(C(=O)N[C@H]7CC[C@H](Oc8ccc(C#N)c(Cl)c8)CC7)nn6)CC5)CC4)c(OC(=O)N4CCN(C)CC4)ccc3nc2-1 [Compound No. 10, (S)-10-((4-(1-(6-(((1r,4r)-4-(3-Chloro-4-cyanophenoxy)cyclohexyl)carbamoyl)pyridazin-3-yl)piperidine-4-carbonyl)piperazin-1-yl)methyl)-4-ethyl-4-hydroxy-3,14-dioxo-3,4,12,14-tetrahydro-1H-pyrano[3′,4′:6,7]indolizino[1,2-b]quinolin-9-yl 4-Methylpiperazine-1-carboxylate] | > 1000 | > 1000 | 10 to 100 | > 1000 | 
8 | CC[C@@]1(O)C(=O)OCc2c1cc1n(c2=O)Cc2cc3c(CN(C)C)c(OCC4CCN(C(=O)C5CCN(c6ccc(C(=O)N[C@H]7CC[C@H](Oc8ccc(C#N)c(Cl)c8)CC7)nn6)CC5)CC4)ccc3nc2-1 [Compound No. 16, N-((1r,4r)-4-(3-Chloro-4-cyanophenoxy)cyclohexyl)-6-(4-(4-((((S)-10-((dimethylamino)-methyl)-4-ethyl-4-hydroxy-3,14-dioxo-3,4,12,14-tetrahydro-1H-pyrano[3′,4′:6,7]indolizino[1,2-b]quinolin-9-yl)oxy)methyl)piperidine-1-carbonyl)piperidin-1-yl)pyridazine-3-carboxamide] |  | 101 to 1000 | 10 to 100 | > 1000 | 101 to 1000
9 | CC[C@@]1(O)C(=O)OCc2c1cc1n(c2=O)Cc2cc3c(CN4CCN(C(=O)C5CCN(c6ccc(C(=O)N[C@H]7CC[C@H](Oc8ccc(C#N)c(Cl)c8)CC7)nn6)CC5)CC4)c(OC(=O)N(C)c4ccccc4)ccc3nc2-1 [Compound 2, (S)-10-((4-(1-(6-(((1r,4r)-4-(3-Chloro-4-cyanophenoxy)cyclohexyl)carbamoyl)pyridazin-3-yl)piperidine-4-carbonyl)piperazin-1-yl)methyl)-4-ethyl-4-hydroxy-3,14-dioxo-3,4,12,14-tetrahydro-1H-pyrano[3′,4′:6,7]indolizino[1,2-b]quinolin-9-yl Methyl(phenyl)carbamate] | > 1000 | > 1000 | 101 to 1000 |  | 
10 | CC[C@@]1(O)C(=O)OCc2c1cc1n(c2=O)Cc2cc3c(CN(C)C)c(OC(=O)N4C[C@H](C)N(C(=O)C5CCN(c6ccc(C(=O)N[C@H]7CC[C@H](N(C)c8ccc(C#N)c(Cl)c8)CC7)nn6)CC5)C[C@H]4C)ccc3nc2-1 [Compound No. 17, (S)-10-((Dimethylamino)methyl)-4-ethyl-4-hydroxy-3,14-dioxo-3,4,12,14-tetrahydro-1H-pyrano[3′,4′:6,7]indolizino[1,2-b]quinolin-9-yl (2R,5S)-4-(1-(6-(((1r,4r)-4-((3-chloro-4-cyanophenyl)(methyl)-amino)cyclohexyl)carbamoyl)pyridazin-3-yl)piperidine-4-carbonyl)-2,5-dimethylpiperazine-1-carboxylate] | 101 to 1000 | 101 to 1000 | 10 to 100 | > 1000 | 
11 | CC[C@@]1(O)C(=O)OCc2c1cc1n(c2=O)Cc2cc3c(CN(C)C)c(OC(=O)N4CCN(CC5CCN(c6ccc(N7C(=S)N(c8ccc(C#N)c(Cl)c8)C(=O)C7(C)C)cc6)CC5)CC4)ccc3nc2-1 [Compound 58, (S)-10-((dimethylamino)methyl)-4-ethyl-4-hydroxy-3,14-dioxo-3,4,12,14-tetrahydro-1H-pyrano[3′,4′:6,7]indolizino[1,2-b]quinolin-9-yl 4-((1-(4-(3-(3-chloro-4-cyanophenyl)-5,5-dimethyl-4-oxo-2-thioxoimidazolidin-1-yl)phenyl)piperidin-4-yl)methyl)piperazine-1-carboxylate] | 101 to 1000 | 10 to 100 | 10 to 100 | 101 to 1000 | 
